Measured values taken from ChEMBL document CHEMBL1201862, “PubChem BioAssay data set” (2004).
Calls of active or inactive are those of the source. Cut-off read from the data, not from the text of the source, for most assays here: actives have a measured EC50 and inactives only a lower limit.

What was measured:
[1] = cells; format: functional
[2] = molecular target: Cytochrome P450 3A4 (Homo sapiens, UniProt P08684);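 note: CYP3A4 tested as one member of a cytochrome P450 panel screen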
[3] = cytotoxicity toward NIH3T3 fibroblasts, dose response, counter-screen, cell-based, ATP luminescence, mouse fibroblasts (AID 2010); format: functional; conditions: NIH3T3;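 note: cells exposed to compound for about 90 hours before reading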
[4] = inhibitors of intracellular T. cruzi replication, confirmation, NIH3T3 host cells, beta-gal luminescence (AID 2044); format: functional, cell-based;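 note: intracellular parasites grown in NIH/3T3 mouse fibroblasts as host cells; luminescent beta-galactosidase reporter signal from transgenic T. cruzi replicating inside host cells; inhibitors lower the luminescence signal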
[5] = test system: Streptococcus sp. 'group A'; experiment: growth inhibition of control SK(-) GAS strain, dose response, counter-screen for streptokinase expression inhibitor project, luminescence, kanamycin, BacTiterGlo, confirmation (AID 1900); format: functional, organism-based; conditions: Streptococcus sp. 'group A'
[6] = molecular target: T1, Streptokinase A (Streptococcus pyogenes serotype M1, UniProt P10520); experiment: S. pyogenes streptokinase expression inhibitors, potency, dose response, plasminogen activation absorbance, OD405 (AID 1914); format: functional, Streptococcus pyogenes M1 GAS;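 note: secreted streptokinase activity via plasminogen activation per viability signal from cell pellet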
T1 sequence (P10520 whole entry): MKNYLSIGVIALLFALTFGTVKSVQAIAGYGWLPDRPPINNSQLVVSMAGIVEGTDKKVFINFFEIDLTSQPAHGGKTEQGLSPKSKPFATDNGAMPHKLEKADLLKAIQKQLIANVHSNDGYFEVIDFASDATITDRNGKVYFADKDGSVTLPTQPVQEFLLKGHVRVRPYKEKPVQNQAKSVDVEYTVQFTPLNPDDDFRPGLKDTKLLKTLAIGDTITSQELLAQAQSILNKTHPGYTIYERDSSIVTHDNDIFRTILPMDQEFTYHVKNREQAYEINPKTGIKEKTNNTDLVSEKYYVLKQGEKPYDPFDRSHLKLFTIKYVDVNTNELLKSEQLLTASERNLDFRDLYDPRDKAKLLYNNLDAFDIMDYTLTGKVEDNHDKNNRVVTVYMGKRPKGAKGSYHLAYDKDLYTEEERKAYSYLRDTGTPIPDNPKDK

[7] = test system: Streptococcus; experiment: Group A Streptococcus viability loss, dose response, counter-screen for streptokinase expression inhibitor project, luminescence, BacTiterGlo (AID 1915); format: functional, organism-based; conditions: Streptococcus;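 note: potency for reduction of bacterial viability or growth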
[8] = HEp-2 cell cytotoxicity, dose response, cytotoxicity control for RSV inhibitor project, HTS (AID 2410); format: functional; conditions: human respiratory syncytial virus

Chain of Cytochrome P450 3A4 (P08684 whole entry): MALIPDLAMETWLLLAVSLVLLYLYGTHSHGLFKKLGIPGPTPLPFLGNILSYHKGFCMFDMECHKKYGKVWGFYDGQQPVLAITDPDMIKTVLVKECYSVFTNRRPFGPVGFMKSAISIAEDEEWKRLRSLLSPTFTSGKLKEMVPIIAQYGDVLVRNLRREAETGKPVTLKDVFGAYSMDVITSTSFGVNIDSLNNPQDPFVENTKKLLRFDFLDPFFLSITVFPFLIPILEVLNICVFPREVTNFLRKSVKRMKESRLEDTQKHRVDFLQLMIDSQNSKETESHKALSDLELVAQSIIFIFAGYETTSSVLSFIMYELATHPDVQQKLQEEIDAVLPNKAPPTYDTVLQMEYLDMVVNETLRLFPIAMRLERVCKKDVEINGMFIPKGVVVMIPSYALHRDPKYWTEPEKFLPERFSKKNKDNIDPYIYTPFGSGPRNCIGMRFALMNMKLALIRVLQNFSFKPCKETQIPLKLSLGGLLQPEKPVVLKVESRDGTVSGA

## COc1cccc(C(=O)OCC(=O)c2ccc(Br)s2)c1OC
[1]
  IC50: 29.7 µM (active)

## COC(=O)c1nn(-c2ccc(OC)cc2)c(=O)cc1Oc1cccc(Cl)c1
[2]
  AC50: 39.8 µM (inconclusive)

## Cc1ccc(OCC(=O)Nc2cc(S(=O)(=O)N3CCCCC3)ccc2N2CCN(C)CC2)c(C)c1
[3]
  EC50: > 60 µM (not active)
[4]
  EC50: 0.171 µM (active)

## CC1CCCC(C)N1c1nnc(NC(=O)c2cc(-c3ccc(Br)cc3)on2)s1 (stereo not given)
[5]
  EC50: 2.33 µM (active)
[6]
  EC50: > 150 µM (not active)
[7]
  EC50: 25.2 µM (active)

## Cc1ccc2sc(NNC(=O)c3cc(-c4cccs4)nc4ccccc34)nc2c1C
[5]
  EC50: 0.758 µM (active)
[7]
  EC50: 1.48 µM (active)

## Cc1cc(N/N=C/c2cccc(Br)c2)nc2ccccc12
[5]
  EC50: 7.14 µM (active)
[6]
  EC50: > 150 µM (not active)
[7]
  EC50: 7.4 µM (active)

## Cc1nc(N2CCN(Cc3ccccc3)CC2)nc2c1C(=O)CC(C)C2 (stereo not given)
[3]
  EC50: > 60 µM (not active)
[4]
  EC50: 1.42 µM (active)

## COc1ccc(C(C(=O)NC2CCCCC2)N(C(=O)Cc2c[nH]c3ccccc23)c2ccccc2)cc1OC (stereo not given)
[8]
  CC50: 27.2 µM (active)

## CCOC(=O)C1CCN(C2=C(NS(=O)(=O)c3ccc(Cl)cc3)C(=O)c3ccccc3C2=O)CC1
[5]
  EC50: 8.11 µM (active)
[6]
  EC50: 27 µM (active)
[7]
  EC50: > 150 µM (not active)

## O=C(Nc1ccccc1N1CCN(C(=O)c2ccc(Cl)cc2)CC1)c1ccc(Br)cc1
[3]
  EC50: > 60 µM (not active)
[4]
  EC50: 1.29 µM (active)

## CCOc1ccccc1NC(=O)NCc1ccc2c(c1)OCO2
[5]
  EC50: > 150 µM (not active)
[6]
  EC50: > 150 µM (not active)
[7]
  EC50: > 150 µM (not active)

## N#Cc1ccccc1-c1ccc2ncnc(N3CCNCC3)c2c1
[2]
  AC50: 31.6 µM (inconclusive)

## Cc1ccc(C(=O)OC2OC(=O)C(Cl)=C2N2CCOCC2)cc1 (stereo not given)
[5]
  EC50: 0.884 µM (active)
[7]
  EC50: 2.04 µM (active)

## CCCSc1nsc(NC(=O)CCC)n1
[3]
  EC50: > 60 µM (not active)
[4]
  EC50: 1.04 µM (active)

## Cc1cc(O)c(NC(=O)c2cc([N+](=O)[O-])ccc2Cl)cc1C
[8]
  CC50: 23.3 µM (active)

## CC(=O)Nc1cccc(-c2csc(Nc3ccc(Cl)cn3)n2)c1
[8]
  CC50: 9.11 µM (active)

## CN1CCN(c2ccc(S(=O)(=O)N3CCCCC3)cc2NC(=O)COc2cccc(Cl)c2)CC1
[3]
  EC50: > 30 µM (not active)
[4]
  EC50: 0.629 µM (active)

## Cc1ccc(C2(C(F)(F)F)N=C3Sc4cc(C)cc(C)c4N3C(=O)N2)cc1 (stereo not given)
[8]
  CC50: 23 µM (active)

## Cc1cccc(Cn2ccc(NC(=O)c3ccc4c(c3)OCO4)n2)c1
[1]
  IC50: 2.33 µM (active)

## CN(C)CCOCCOc1ccc(Cl)cc1Br
[3]
  EC50: > 60 µM (inconclusive)
[4]
  EC50: 0.937 µM (active)

## COc1cc2c3cc1Oc1c(OC)c(OC)cc4c1[C@@H](Cc1ccc(O)c(c1)Oc1ccc(cc1)C[C@@H]3N(C)CC2)CN(C)C4
[2]
  AC50: 2.51 µM (inconclusive)

## Cc1ccc(N2C(=O)CC(Sc3nc4ccccc4o3)C2=O)cc1Cl (stereo not given)
[3]
  EC50: 8.27 µM (active)
[4]
  EC50: 2.16 µM (active)

## Cc1ccc(C)c(-c2nnc(NC(=O)CCS(=O)(=O)c3ccccc3)o2)c1
[5]
  EC50: 8.03 µM (active)
[6]
  EC50: > 150 µM (not active)
[7]
  EC50: 141 µM (active)

## CCN(c1ccccc1)S(=O)(=O)c1ccc(OC)c(NC(=O)CNCCc2ccccc2)c1
[3]
  EC50: > 60 µM (not active)
[4]
  EC50: 1.72 µM (active)
[8]
  CC50: 14.4 µM (active)

## N[C@@H](Cc1c[nH]cn1)C(=O)O [HISTIDINE]
[2]
  AC50: 0.794 µM (inconclusive)

## CCOC(=O)c1c(NC(=O)CSc2nnnn2-c2ccccc2OCC)sc2c1CC(C)(C)NC2(C)C
[3]
  EC50: > 30 µM (not active)
[4]
  EC50: 1.31 µM (active)

## CCCCOc1ccc(-c2cn3ccccc3n2)cc1[N+](=O)[O-]
[8]
  CC50: 38.7 µM (active)

## COc1ccccc1CN1CCCC(CNC(=O)c2cccc3ccccc23)C1 (stereo not given)
[3]
  EC50: > 60 µM (not active)
[4]
  EC50: 0.679 µM (active)

## COc1ccccc1CN1CCCC2(CCN(C(=O)c3ccco3)CC2)C1
[2]
  AC50: 25.1 µM (inconclusive)

## Cn1nc(-c2ccccc2)c(CSc2ccccc2Cl)c1Cl
[5]
  EC50: 22.8 µM (active)
[6]
  EC50: 22.8 µM (active)
[7]
  EC50: > 150 µM (not active)

## Cc1nn(-c2ccc([N+](=O)[O-])cc2)c(O)c1/C=N/CCN1CCN(C(=O)c2ccc(Br)cc2)CC1
[3]
  EC50: 39.9 µM (active)
[4]
  EC50: 10.7 µM (active)

## Cc1nc(NC(=O)c2ccc(Cl)cc2)sc1-c1csc(Nc2cccc(F)c2)n1
[5]
  EC50: 1.67 µM (active)
[6]
  EC50: > 150 µM (not active)
[7]
  EC50: 21.4 µM (active)

## CC1CCN(C(=O)c2ccc(-c3ccccc3Cl)o2)CC1
[1]
  IC50: 33.8 µM (active)

## CCCCC(=O)Nc1ccc(C(=O)OC2CCCCC2)cc1
[8]
  CC50: 22.8 µM (active)

## Cc1nc(S)c2c(n1)-c1ccccc1CC21CCCCC1
[5]
  EC50: 1.15 µM (active)
[7]
  EC50: 3.57 µM (active)

## C/C(=N\NC(=S)Nc1ccccc1C)c1cc2ccccc2o1
[3]
  EC50: > 60 µM (not active)
[4]
  EC50: 2.18 µM (active)

## c1ccc(Nc2nc3ccccc3[nH]2)nc1
[5]
  EC50: 3.59 µM (active)
[6]
  EC50: > 150 µM (not active)
[7]
  EC50: > 150 µM (not active)

## C1=NCCc2c1[nH]c1ccccc21.[O-][Cl+3]([O-])([O-])O
[8]
  CC50: 10.3 µM (active)

## CC(C)CCn1c(=O)c(C(=O)N/N=C/c2cccc(F)c2)c(O)c2ccccc21
[5]
  EC50: 2.24 µM (active)
[7]
  EC50: 7.41 µM (active)

## Cc1cc(C)c2[nH]c(O)c(N=Nc3ccc(C(=O)O)cc3)c2c1
[5]
  EC50: 4.53 µM (active)
[6]
  EC50: > 150 µM (not active)
[7]
  EC50: 11.1 µM (active)

## COc1ccc(-n2c(=O)c(-c3cccs3)nc3cnc(Nc4cccc(OC)c4)nc32)cc1
[2]
  AC50: 1.58 µM (inconclusive)

## Clc1ccccc1Sc1ccc(-c2ccccn2)s1
[5]
  EC50: 17.6 µM (active)
[6]
  EC50: > 150 µM (not active)
[7]
  EC50: > 150 µM (not active)

## CCS(=O)(=O)Nc1ccc(C2=NN(C(=O)c3ccco3)C(c3cccc(F)c3)C2)cc1 (stereo not given)
[8]
  CC50: 32.9 µM (active)

## CN1CCN(C(=O)CCCN2C(=O)/C(=C/c3ccc(Cl)cc3)SC2=S)CC1
[8]
  CC50: 13.5 µM (active)

## CCN(CCCNC(=O)CNC(=O)c1nn(-c2ccc(OC)cc2)c(=O)c2ccccc12)c1cccc(C)c1
[8]
  CC50: 46 µM (active)

## CC(C)(C)n1nnnc1C(c1cccnc1)N1CCN(c2ccccc2)CC1 (stereo not given)
[3]
  EC50: > 60 µM (not active)
[4]
  EC50: 0.666 µM (active)

## COc1ccc(-n2nc3cc(C)c(NC(=O)C(C)C)cc3n2)cc1
[5]
  EC50: > 150 µM (not active)
[6]
  EC50: > 150 µM (not active)
[7]
  EC50: > 150 µM (not active)

## N#C/C(=N\Nc1ccc(S(=O)(=O)N2CCOCC2)cc1)C(N)=S
[5]
  EC50: > 150 µM (not active)
[6]
  EC50: > 150 µM (not active)
[7]
  EC50: > 150 µM (not active)

## Cc1cnc(CNc2ccnc(-c3c(C)noc3C)n2)cn1
[2]
  AC50: 10 µM (inconclusive)

## CCOc1cc2c(cc1OCC)-n1cccc1C(c1cc(OC)ccc1F)NC2 (stereo not given)
[8]
  CC50: 39.8 µM (active)

## Fc1ccc(CNc2nc(-c3cccnc3)nc3ccccc23)cc1
[3]
  EC50: > 60 µM (not active)
[4]
  EC50: 0.67 µM (active)

## COc1ccc(/C=C/C(=O)Nc2cccc(S(=O)(=O)NC3=NCCCCC3)c2)cc1
[8]
  CC50: 27.9 µM (active)

## NCCCP(=O)(O)O
[2]
  AC50: 0.158 µM (inconclusive)

## COc1ccc(C(=O)Nc2ccccc2-c2nnn(CC(=O)Nc3ccc4c(c3)OCCO4)n2)cc1
[5]
  EC50: 41.1 µM (active)
[6]
  EC50: > 150 µM (not active)
[7]
  EC50: > 150 µM (inconclusive)

## Cc1cccc(C(=O)NNC(=O)c2c(O)c3ccccc3n(C)c2=O)c1
[5]
  EC50: 4.62 µM (active)
[6]
  EC50: > 150 µM (not active)
[7]
  EC50: 9.81 µM (active)

## CNC(=O)c1sc(-c2cccnc2)nc1C
[2]
  AC50: 31.6 µM (inconclusive)

## CC(=O)NCCn1c(SCc2cc(F)ccc2F)nc2ccccc2c1=O
[3]
  EC50: > 60 µM (not active)
[4]
  EC50: 0.487 µM (active)

## CC[C@H]1C2=C3C(CC[C@H]4C(OCc5ccc(F)cc5C(F)(F)F)OC[C@](C)([C@@H]34)N(C(=O)OC(C)(C)C)C2)C(COC)C1COC (stereo not given in full)
[2]
  AC50: 10 µM (inconclusive)

## O=C(NCc1ccco1)C(c1ccccc1F)N(Cc1cccnc1)C(=O)Cn1nnc2ccccc21 (stereo not given)
[3]
  EC50: > 60 µM (not active)
[4]
  EC50: 1.68 µM (active)

## COc1ccc(C(=O)C2CCCN(Cc3ccc4nonc4c3)C2)c(OC)c1 (stereo not given)
[3]
  EC50: > 60 µM (not active)
[4]
  EC50: 0.97 µM (active)

## c1ccc(-c2cccc(N3CC[C@@]4(CCCNC4)C3)c2)cc1
[2]
  AC50: 15.8 µM (inconclusive)

## Cc1ccc(S(=O)(=O)Nc2cccc(-c3ccc(N4CCCCCC4)nn3)c2)cc1C
[8]
  CC50: 25.8 µM (active)

## CSc1ccc(S(=O)(=O)NCC(=O)OCC(=O)N2CCCC2=O)cc1[N+](=O)[O-]
[5]
  EC50: 4.7 µM (active)
[6]
  EC50: > 150 µM (not active)
[7]
  EC50: > 150 µM (not active)
